Test results from paper PMC5750218, “Protein-inspired antibiotics active against vancomycin- and daptomycin-resistant bacteria” (Nature Communications, 2018).
Values after ≈ are worked out from the molar mass of the structure shown. Values joined by “and” are separate entries in the source; they are usually repeats but may differ in a detail not shown here. Identical values can stand only once. Like-named read-outs stand apart in the source and are kept apart here.

How the values were obtained:
[1] = system: Methicillin-resistant S. aureus ATCC 43300; test: microbe, parasite or virus in culture; conditions: for MIC: Staphylococcus aureus, ATCC43300|MRSA
Outline: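 MICs were determined by broth microdilution in Mueller Hinton broth. Bacteria were pregrown overnight, diluted 40-fold and regrown 2–3 h at 37 °C.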

S. aureus ATCC 43300 = test: Membrane permeability assay (propidium iodide); format: cell-based, Staphylococcus aureus
Experimental: To evaluate the ability of the compounds to disrupt the cytoplasmic membrane integrity, the membrane impermeable fluorescent DNA intercalating dye propidium iodide (PI) was used. Early exponential phase cells were pelleted and washed twice in 10 mM HEPES buffer (pH 7.4) containing 50 µg mL^−1 of CaCl2 and 5 mM glucose, and then re-suspended in the same buffer (4 × 10^8 CFU mL^−1). Cell suspension was added to a 384-well black walled polystyrene plate (Corning, CLS3573) containing compounds, giving a final concentration of 16 µg mL^−1. After 1 h incubation at 37 °C, 5 µg mL^−1 of PI was added and fluorescence was monitored for 90 min using a Tecan Infinite® m1000 Pro Multi-mode reader (excitation/emission 535/620 nm). Data were corrected by subtraction of fluorescence signal arising from untreated cells in the presence of PI. […] Each sample was tested in quadruplicate and independent assays were performed twice showing similar results. Data was analysed and presented using Prism software.

[2] = system: Methicillin-sensitive S. aureus ATCC 29213; test: microbe, parasite or virus in culture; format: cell-based, Staphylococcus aureus; conditions: for MIC: Staphylococcus aureus, ATCC 29213 / MSSA
Experimental: Antimicrobial activity of compounds was tested against a number of bacterial strains by broth microdilution (BMD) assay with MIC determination, including S. aureus (MSSA ATCC® 29213™, MRSA ATCC® 43300™, VISA NARSA NRS1, VISA NARSA NRS4), Streptococcus pneumoniae (MDR ATCC® 700677™) and Enterococcus faecium (MDR VanA ATCC® 51559™). ATCC strains were sourced from the American Type Culture Collection and NRS strains from NARSA (Network on Antimicrobial Resistance in S. aureus) via BEI Resources (www.beiresources.org). All compounds were prepared to 160 µg mL^−1 solution in water from a stock solution of 1 mM concentration.
[…] […] Standards ranged from 64 to 0.03 µg mL^−1 and compounds from 8 to 0.003 µg mL^−1 with final assay volumes of 100 µL per well. Gram-positive bacteria were cultured in Mueller Hinton broth (MHB) (Bactolaboratories, Cat. no. 211443) at 37 °C overnight. A sample of each culture was then diluted 40-fold in fresh MHB and incubated at 37 °C for 2–3 h. The resultant mid-log phase cultures were added to the compound-containing 96-well plates to give a final cell density of 5 × 10^5 colony forming unit (CFU) mL^−1. All the plates were covered and incubated at 37 °C for 24 h. MICs were the lowest concentration showing no visible growth.

Cytotoxicity MTT assay [3] = format: cell-based, human; conditions: human
[4] = system: Vancomycin-resistant S. aureus NARSA VRS4; test: microbe, parasite or virus in culture; format: cell-based, Staphylococcus aureus
Cytotoxicity MTT assay [5] = format: cell-based, human; conditions: human; remark: listed apart in the source
Outline: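 HepG2 and HEK293 cells, 1.5 × 10^4 per well in DMEM with 1% FBS, were allowed to attach for 24 h, then exposed 24 h at 37 °C to compounds at 100 µM to 0.046 µM in threefold steps. MTT (0.4 mg mL^−1) was added for 2 h, and formazan in DMSO was read at 570 nm. Viability is given as percent of control, corrected for a positive control.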

[6] = polystyrene plate with 0.002% polysorbate-80
[7] = polystyrene plate, no polysorbate-80

CN[C@H]1C(=O)N[C@@H]2Cc3ccc(cc3)Oc3cc4cc(c3O[C@@H]3O[C@H](C(=O)O)[C@@H](O)[C@H](O)[C@H]3NC(=O)CCCCCCCCC(C)C)Oc3ccc(cc3Cl)[C@@H](O)[C@@H]3NC(=O)[C@H](NC(=O)[C@@H]4NC(=O)[C@@H](NC2=O)c2cc(cc(O)c2Cl)Oc2cc1ccc2O)c1ccc(O)c(c1)-c1c(O[C@H]2O[C@H](CO)[C@@H](O)[C@H](O)[C@@H]2O)cc(O)cc1[C@@H](C(=O)NCCCN(C)C)NC3=O [Compound 3, Dalbavancin]
MIC MRSA ([1]; S. aureus ATCC 43300, NBS plates, MHB, 24 h, substance alone): 0.06 µg/mL and 0.03 µg/mL | MIC S. aureus ATCC 43300 MRSA, NBS ([1]; non-binding surface plate): ≤ 0.016 µg/mL | MIC S. aureus ATCC 43300 MRSA, PP ([1]; polypropylene plate): 0.063 µg/mL (≈ 0.0347 µM) | MIC S. aureus ATCC 43300 MRSA, PS+P-80 [1, 6]: ≤ 0.016 µg/mL | MIC S. aureus ATCC 43300 MRSA, PS [1, 7]: 0.25 µg/mL (≈ 0.138 µM) | Membrane permeabilisation (propidium iodide fluorescence) (S. aureus ATCC 43300): little to no effect | MIC MSSA ([2]; S. aureus ATCC 29213): ≤0.016 µg/mL | MIC S. aureus ATCC29213 MSSA, NBS ([2]; non-binding surface plate): ≤ 0.016 µg/mL | MIC S. aureus ATCC29213 MSSA, PP ([2]; polypropylene plate): 0.125 µg/mL (≈ 0.0688 µM) | MIC S. aureus ATCC29213 MSSA, PS+P-80 [2, 6]: ≤ 0.016 µg/mL | MIC S. aureus ATCC29213 MSSA, PS [2, 7]: 0.25 µg/mL (≈ 0.138 µM)

CN[C@H](CC(C)C)C(=O)N[C@H]1C(=O)N[C@@H](CC(N)=O)C(=O)N[C@H]2C(=O)N[C@H]3C(=O)N[C@H](C(=O)N[C@H](C(=O)O)c4cc(O)cc(O)c4-c4cc3ccc4O)[C@H](O[C@H]3C[C@](C)(N)[C@@H](O)[C@H](C)O3)c3ccc(c(Cl)c3)Oc3cc2cc(c3O[C@@H]2O[C@H](CO)[C@@H](O)[C@H](O)[C@H]2O[C@H]2C[C@](C)(NCc3ccc(-c4ccc(Cl)cc4)cc3)[C@@H](O)[C@H](C)O2)Oc2ccc(cc2Cl)[C@H]1O [Compound 5, Oritavancin, reference compound]
CC50 at 24 h (Cytotoxicity MTT assay [3]; 24 h, MTT, 1% FBS, read-out: Cytotoxicity CC50 HepG2): 25 µM | MIC ([1]; 24 h, read-out: MIC MRSA, S. aureus ATCC 43300, NBS plates, MHB, 24 h, substance alone): 0.06 µg/mL (≈ 0.0335 µM) | MIC ([1]; read-out: MIC S. aureus ATCC 43300 MRSA, NBS, non-binding surface plate): ≤ 0.016 µg/mL | MIC ([1]; read-out: MIC S. aureus ATCC 43300 MRSA, PP, polypropylene plate): 1 µg/mL (≈ 0.558 µM) | MIC ([1]; read-out: MIC S. aureus ATCC 43300 MRSA, PS+P-80, polystyrene plate with 0.002% polysorbate-80): ≤ 0.016 µg/mL | MIC ([1]; read-out: MIC S. aureus ATCC 43300 MRSA, PS, polystyrene plate, no polysorbate-80): 1 µg/mL (≈ 0.558 µM) | MIC ([2]; read-out: MIC MSSA): ≤ 0.016 µg/mL | MIC ([2]; read-out: MIC S. aureus ATCC29213 MSSA, NBS): ≤ 0.016 µg/mL | MIC ([2]; read-out: MIC S. aureus ATCC29213 MSSA, PP): 1 µg/mL (≈ 0.558 µM) | MIC ([2]; read-out: MIC S. aureus ATCC29213 MSSA, PS): 1 µg/mL (≈ 0.558 µM) | MIC ([2]; read-out: MIC S. aureus ATCC29213 MSSA, PS+P-80): 0.031 µg/mL (≈ 0.0173 µM) | MIC ([4]; Staphylococcus aureus, VRSA, read-out: MIC VRSA): 0.125 µg/mL (≈ 0.0697 µM) | CC50 at 24 h (Cytotoxicity MTT assay [5]; 24 h, MTT, 1% FBS, read-out: Cytotoxicity CC50 HEK293): 29 µM

CCCCCCCCCCC(=O)N[C@@H](CCCCN)C(=O)N[C@@H](CCCCN)C(=O)N[C@@H](CCCCN)C(=O)N[C@@H](CCCCNC(=O)[C@H]1NC(=O)[C@H]2NC(=O)[C@H](NC(=O)[C@@H]3NC(=O)[C@H](CC(N)=O)NC(=O)[C@H](NC(=O)[C@@H](CC(C)C)NC)[C@H](O)c4ccc(c(Cl)c4)Oc4cc3cc(c4O[C@@H]3O[C@H](CO)[C@@H](O)[C@H](O)[C@H]3O[C@H]3C[C@](C)(N)[C@H](O)[C@H](C)O3)Oc3ccc(cc3Cl)[C@H]2O)c2ccc(O)c(c2)-c2c(O)cc(O)cc21)C(=O)O [Compound 18, nC10CO-KKK-K(Vancomycin)-OH]
CC50 at 24 h (Cytotoxicity MTT assay [3]): 106 µM | MIC MRSA ([1]; ATCC 43300, 24 h): 0.045 µg/mL (≈ 0.0211 µM) | MIC VRSA ([4]; Vancomycin-resistant NARSA VRS4): 0.5 µg/mL (≈ 0.235 µM) | CC50 at 24 h (Cytotoxicity MTT assay [5]): 108 µM
